# From patent US20240269139A1, “COMPOUNDS FOR TARGETED PROTEIN DEGRADATION OF KINASES” (DANA-FARBER CANCER INSTITUTE, INC., priority 2020, published 2024)
# Read-outs that look alike come from different tables or passages of the source.
# Legend:
# Format in all cases: cell-based
# [1] = biological target: protein kinases (human kinome) (Homo sapiens, UniProt P16591)
# [2] = biological target: protein kinases (human kinome) (Homo sapiens, UniProt P11802); details: experiment wp137
# [3] = biological target: protein kinases (human kinome) (Homo sapiens, UniProt P30291); details: experiment wp137
# [4] = biological target: T1, protein kinases (human kinome) (Homo sapiens, UniProt O75385)
# T1 sequence (O75385 1-1050): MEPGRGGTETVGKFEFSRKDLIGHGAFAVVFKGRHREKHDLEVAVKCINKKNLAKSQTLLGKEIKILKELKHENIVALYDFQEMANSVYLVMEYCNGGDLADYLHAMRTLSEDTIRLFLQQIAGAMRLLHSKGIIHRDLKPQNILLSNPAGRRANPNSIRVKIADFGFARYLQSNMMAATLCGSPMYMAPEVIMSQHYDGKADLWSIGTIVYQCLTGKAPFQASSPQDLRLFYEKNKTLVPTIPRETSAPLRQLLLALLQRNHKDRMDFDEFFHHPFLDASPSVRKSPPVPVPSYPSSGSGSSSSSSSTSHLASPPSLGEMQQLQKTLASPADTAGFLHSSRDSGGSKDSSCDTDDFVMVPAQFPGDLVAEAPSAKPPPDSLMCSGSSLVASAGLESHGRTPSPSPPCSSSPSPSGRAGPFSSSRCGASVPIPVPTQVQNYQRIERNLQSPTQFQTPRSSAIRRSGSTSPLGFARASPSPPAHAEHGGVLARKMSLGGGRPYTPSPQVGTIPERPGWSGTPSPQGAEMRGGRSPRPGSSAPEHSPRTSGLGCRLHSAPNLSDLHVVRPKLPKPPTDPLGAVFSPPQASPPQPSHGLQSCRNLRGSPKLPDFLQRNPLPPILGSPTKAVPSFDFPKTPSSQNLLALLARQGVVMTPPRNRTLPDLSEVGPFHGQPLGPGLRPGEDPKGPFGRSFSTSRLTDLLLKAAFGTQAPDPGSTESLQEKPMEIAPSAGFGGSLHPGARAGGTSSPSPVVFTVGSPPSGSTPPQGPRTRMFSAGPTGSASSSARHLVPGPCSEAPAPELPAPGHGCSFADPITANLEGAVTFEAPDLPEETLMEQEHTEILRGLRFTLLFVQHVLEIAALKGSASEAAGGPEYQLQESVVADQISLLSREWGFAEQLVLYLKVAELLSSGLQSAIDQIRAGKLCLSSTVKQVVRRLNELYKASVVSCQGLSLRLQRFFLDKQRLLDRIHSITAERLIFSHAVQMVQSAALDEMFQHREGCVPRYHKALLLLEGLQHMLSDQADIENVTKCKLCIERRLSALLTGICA
# [5] = biological target: T2, protein kinases (human kinome) (Homo sapiens, UniProt O14965)
# T2 sequence (O14965 1-403): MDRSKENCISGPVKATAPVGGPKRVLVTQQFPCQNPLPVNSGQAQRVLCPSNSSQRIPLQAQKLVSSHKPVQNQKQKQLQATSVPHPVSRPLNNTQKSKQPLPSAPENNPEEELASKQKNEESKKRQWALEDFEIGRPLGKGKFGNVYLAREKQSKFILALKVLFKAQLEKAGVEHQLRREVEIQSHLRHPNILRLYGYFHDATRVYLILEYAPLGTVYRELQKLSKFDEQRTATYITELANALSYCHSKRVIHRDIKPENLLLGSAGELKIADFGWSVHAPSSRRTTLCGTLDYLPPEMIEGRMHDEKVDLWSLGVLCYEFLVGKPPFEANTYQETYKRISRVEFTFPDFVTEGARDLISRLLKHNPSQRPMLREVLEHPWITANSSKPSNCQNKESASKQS
# [6] = biological target: protein kinases (human kinome) (Homo sapiens, UniProt Q2M2I8); details: experiment wp137
# [7] = tested on: protein kinases (human kinome)
# [8] = AURKB Q96GD4-5, experiment wp137
# Chain of protein kinases (human kinome) (Homo sapiens, UniProt P11802) (P11802 whole entry): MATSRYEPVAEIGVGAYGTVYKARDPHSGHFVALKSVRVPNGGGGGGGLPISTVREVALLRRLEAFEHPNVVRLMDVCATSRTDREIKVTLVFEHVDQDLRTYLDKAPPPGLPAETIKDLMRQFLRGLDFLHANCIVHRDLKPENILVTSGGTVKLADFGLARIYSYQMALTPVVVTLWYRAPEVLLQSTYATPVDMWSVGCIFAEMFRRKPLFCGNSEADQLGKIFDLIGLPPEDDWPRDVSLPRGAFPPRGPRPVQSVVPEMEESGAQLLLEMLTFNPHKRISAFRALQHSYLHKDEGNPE
# Chain of protein kinases (human kinome) (Homo sapiens, UniProt P16591) (P16591 whole entry): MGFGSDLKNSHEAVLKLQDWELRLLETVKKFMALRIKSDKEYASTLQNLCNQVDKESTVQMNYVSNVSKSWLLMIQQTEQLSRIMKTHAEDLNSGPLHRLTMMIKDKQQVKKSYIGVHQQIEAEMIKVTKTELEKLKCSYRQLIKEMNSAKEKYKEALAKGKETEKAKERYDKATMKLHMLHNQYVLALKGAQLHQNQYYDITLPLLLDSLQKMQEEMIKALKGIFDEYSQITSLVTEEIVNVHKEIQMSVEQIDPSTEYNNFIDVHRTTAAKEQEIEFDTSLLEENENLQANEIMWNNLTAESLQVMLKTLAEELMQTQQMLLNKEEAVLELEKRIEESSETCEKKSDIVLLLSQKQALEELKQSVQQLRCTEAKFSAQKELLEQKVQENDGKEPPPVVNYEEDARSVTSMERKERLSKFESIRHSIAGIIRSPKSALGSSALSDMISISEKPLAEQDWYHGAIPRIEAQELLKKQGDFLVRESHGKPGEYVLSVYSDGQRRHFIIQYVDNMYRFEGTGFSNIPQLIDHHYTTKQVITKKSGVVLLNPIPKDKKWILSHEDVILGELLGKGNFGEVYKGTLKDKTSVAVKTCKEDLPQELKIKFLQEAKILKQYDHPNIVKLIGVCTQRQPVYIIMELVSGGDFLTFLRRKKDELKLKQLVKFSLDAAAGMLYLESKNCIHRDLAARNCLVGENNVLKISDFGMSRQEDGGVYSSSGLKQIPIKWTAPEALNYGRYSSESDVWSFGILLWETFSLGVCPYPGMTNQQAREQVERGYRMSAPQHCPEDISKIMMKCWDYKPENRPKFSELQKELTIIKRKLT
# Chain of protein kinases (human kinome) (Homo sapiens, UniProt P30291) (P30291 whole entry): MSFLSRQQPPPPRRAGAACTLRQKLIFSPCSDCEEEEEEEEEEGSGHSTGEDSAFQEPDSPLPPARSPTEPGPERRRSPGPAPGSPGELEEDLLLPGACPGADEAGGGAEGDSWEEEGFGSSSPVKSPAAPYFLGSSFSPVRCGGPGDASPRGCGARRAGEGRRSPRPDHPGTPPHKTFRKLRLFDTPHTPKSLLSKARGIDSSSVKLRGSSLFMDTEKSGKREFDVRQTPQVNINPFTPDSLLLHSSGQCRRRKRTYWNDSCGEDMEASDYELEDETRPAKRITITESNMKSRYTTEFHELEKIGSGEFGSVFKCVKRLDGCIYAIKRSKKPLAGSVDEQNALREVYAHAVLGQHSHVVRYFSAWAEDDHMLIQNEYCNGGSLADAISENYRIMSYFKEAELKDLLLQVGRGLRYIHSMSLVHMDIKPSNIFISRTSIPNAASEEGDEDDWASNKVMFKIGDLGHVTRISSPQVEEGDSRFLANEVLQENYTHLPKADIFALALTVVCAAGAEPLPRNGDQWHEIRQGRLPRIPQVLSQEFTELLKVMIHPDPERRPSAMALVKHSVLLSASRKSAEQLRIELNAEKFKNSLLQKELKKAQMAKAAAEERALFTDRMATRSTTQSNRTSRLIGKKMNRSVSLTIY
# Chain of protein kinases (human kinome) (Homo sapiens, UniProt Q2M2I8) (Q2M2I8 whole entry): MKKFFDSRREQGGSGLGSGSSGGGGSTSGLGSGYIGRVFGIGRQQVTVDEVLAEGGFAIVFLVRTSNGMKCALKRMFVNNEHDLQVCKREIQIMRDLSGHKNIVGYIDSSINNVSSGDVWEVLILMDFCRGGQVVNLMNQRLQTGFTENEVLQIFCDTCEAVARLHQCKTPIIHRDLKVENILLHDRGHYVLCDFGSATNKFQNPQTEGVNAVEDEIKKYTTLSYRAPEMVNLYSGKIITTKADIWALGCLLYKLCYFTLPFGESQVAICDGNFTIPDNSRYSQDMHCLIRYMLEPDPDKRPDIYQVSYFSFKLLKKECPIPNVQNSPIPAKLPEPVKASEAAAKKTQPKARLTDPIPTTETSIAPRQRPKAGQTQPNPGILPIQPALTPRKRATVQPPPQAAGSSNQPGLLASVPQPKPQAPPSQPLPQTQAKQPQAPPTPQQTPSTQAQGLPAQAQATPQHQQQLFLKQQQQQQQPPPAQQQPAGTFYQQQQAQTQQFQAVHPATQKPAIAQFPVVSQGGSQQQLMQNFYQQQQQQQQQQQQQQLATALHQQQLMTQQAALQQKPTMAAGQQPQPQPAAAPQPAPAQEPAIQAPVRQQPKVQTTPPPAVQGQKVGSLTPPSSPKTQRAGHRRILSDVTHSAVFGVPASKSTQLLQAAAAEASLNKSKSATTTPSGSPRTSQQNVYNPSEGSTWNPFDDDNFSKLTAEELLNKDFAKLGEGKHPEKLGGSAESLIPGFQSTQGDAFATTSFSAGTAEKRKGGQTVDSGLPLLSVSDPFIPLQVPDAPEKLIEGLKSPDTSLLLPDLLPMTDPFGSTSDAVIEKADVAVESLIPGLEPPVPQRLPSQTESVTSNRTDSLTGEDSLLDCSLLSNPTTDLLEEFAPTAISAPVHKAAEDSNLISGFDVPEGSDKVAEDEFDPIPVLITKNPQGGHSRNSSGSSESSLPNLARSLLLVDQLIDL
smiles,measurement,setting,value
CC(C)S(=O)(=O)c1ccccc1Nc1nc(Nc2ccc(N3CCN(CCOCCOCCC(=O)NCCNc4cccc5c4CN(C4CCC(=O)NC4=O)C5=O)CC3)cc2)ncc1Cl (stereo not drawn) [TL13.97],logFC of FER (P16591-1),"[1]; Experiment wp137, down",−2.412
same,logFC of FER,"[1]; FER P16591-1, experiment wp137",−2.412
same,logFC CDK4 (P11802),[2],−0.9676
same,logFC of WEE1,[3]; WEE1 P30291-1,−1.585
same,logFC WEE1 (P30291-1),[3],−1.585
same,logFC,"[4]; ULK1 (O75385) protein abundance, degrader vs DMSO, down",−1.877
same,logFC ULK1,"[4]; ULK1 O75385, experiment wp137",−1.877
same,logFC AURKA (O14965),[5]; experiment wp014,−0.3268
same,logFC AURKA (O14965),[5]; experiment wp137,−1.612
same,logFC AAK1,"[6]; AAK1 (Q2M218-1), down",−2.479
same,logFC AAK1,"[6]; AAK1, accession Q2M218-1, direction of change down",−2.479
same,logFC,[7]; [8],−0.7523
same,logFC AURKB,[7]; [8],−0.7523
same,logFC BUB1B,"[7]; Accession O60566-3, experiment wp137, direction down",−0.3313
same,logFC of SRC,"[7]; Accession P12931-2, experiment wp137",−0.4824
same,logFC of CDK17,"[7]; Accession Q00537-2, experiment wp137",−0.5683
same,logFC BUB1B,"[7]; BUB1B (O60566-3), experiment wp137",−0.3313
same,logFC,"[7]; CDK9 (P50750-2) protein abundance, degrader vs DMSO, down",−1.37
same,logFC PRKAA1 (Q13131-2),"[7]; Experiment wp137, direction down",−0.6678
same,logFC LCK,"[7]; LCK, accession P06239-3, experiment wp137, direction of change down",−0.8721
same,logFC RPS6KA1,"[7]; RPS6KA1 (Q15418-2), experiment wp137",−0.3757
same,logFC,"[7]; SRC (P12931-2) protein abundance, degrader vs DMSO, down",−0.4824
same,logFC CDK9 (P50750-2),[7]; experiment wp137,−1.37
same,logFC PRKAA1 (Q13131-2),[7]; experiment wp137,−0.6678
same,logFC RPS6KA1 (Q15418-2),[7]; experiment wp137,−0.3757
same,logFC of CDK17 (Q00537-2),[7]; experiment wp137,−0.5683
same,logFC LCK (P06239-3),"[7]; experiment wp137, direction of change down",−0.8721
